Reference: PubChem BioAssay (NCI)
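Each compound was tested at five concentrations against cells in 96-well plates for 48 hours. Abbreviation: GI50, concentration required for 50% inhibition of growth. TGI: concentration producing complete growth inhibition.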

How the values were obtained:
Test in all cases: growth of human tumour cells (NCI), 48 h
[1] = system: T-47D breast
[2] = system: OVCAR-4 ovarian
[3] = system: PC-3 prostate
[4] = system: HCC-2998 colon
[5] = system: OVCAR-5 ovarian
[6] = system: CCRF-CEM leukemia
[7] = system: SF-268 CNS
[8] = system: NCI-H460 lung
[9] = system: SN12C renal
[10] = system: DU-145 prostate

| SMILES | GI50 [1] [µM] | TGI [1] [µM] | GI50 [2] [µM] | TGI [2] [µM] | GI50 [3] [µM] | TGI [3] [µM] | GI50 [4] [µM] | TGI [4] [µM] | GI50 [5] [µM] | TGI [5] [µM] | GI50 [6] [µM] | TGI [6] [µM] | GI50 [7] [µM] | TGI [7] [µM] | GI50 [8] [µM] | TGI [8] [µM] | GI50 [9] [µM] | TGI [9] [µM] | GI50 [10] [µM] | TGI [10] [µM] |
| --- | --- | --- | --- | --- | --- | --- | --- | --- | --- | --- | --- | --- | --- | --- | --- | --- | --- | --- | --- | --- |
| COC(=O)C1=CN(CC2=CC(=O)C(C)=CC2=O)C=C(C(=O)OC)C1c1cccc(OC)c1OC | 46.2 | > 94.4 | 12 | > 60.5 | 15.3 | 38.6 | 14.2 | 27.2 | 18.7 | 36.3 | 12.5 | 77.9 | 18.7 | > 68.4 | 19.7 | > 70.7 | 13.8 | 34 | 17.4 | 33.1 |
| CCN(CC)CCC(=O)Nc1cccc2c1C(=O)c1c(c(O)c3ccccc3c1O)C2=O | > 100 | > 100 | 4.05 | 23.1 | 4.6 | 21.7 | > 100 | > 100 | 14.6 | 30 | 1.34 | 4.71 | 12.7 | 36.5 | 13.3 | 81.3 | 21.5 | > 100 | 15.5 | 61.2 |
| Nc1nc(-n2cccn2)nc(-n2cccn2)c1Br | > 100 | > 100 | > 100 | > 100 | > 100 | > 100 | > 100 | > 100 | > 100 | > 100 | > 100 | > 100 | > 100 | > 100 | > 100 | > 100 | > 100 | > 100 | > 100 | > 100 |
| COc1ccc(NC2=C(Sc3nc(C)cc(C)n3)C(=O)N(Cc3ccccc3)C2=O)cc1Cl | 25.1 | > 160 | 107 | > 160 | 32.9 | > 160 | > 160 | > 160 | > 160 | > 160 | 13.9 | > 160 | > 160 | > 160 | > 160 | > 160 |  |  | > 160 | > 160 |
| COc1ccc2c(c1)[nH]c(=O)c1c3cccnc3cn21 | 2.72 | 31.6 | 0.0735 | > 100 | 0.0338 |  | 0.0744 | 17.7 | 0.205 | > 100 | 0.0437 | > 100 | 0.0686 | 42.7 | 0.0363 | 2.06 | 0.0802 | > 100 | 0.0365 | > 100 |
| CCOC(=O)c1cc2c(cc1Cl)SC(N(c1ccc(F)cc1)S(=O)(=O)c1ccc(OC)cc1)=NS2(=O)=O | 4.8 | 21.9 | 14.9 | 39.5 | 11.3 | 25.5 | 18.2 | 35.2 | 32.4 | 71 | 1.31 | 54.2 | 14.5 | 31.4 | 17 | 36.2 | 19.3 | 50 | 16.1 | 33.9 |
| FC(F)(F)c1ccc2c(c1)N(CCCN1CCN(C3CC3)CC1)c1ccccc1S2 | 12.5 | 26.9 | 11.1 | 23.7 | 5.81 | 20.2 | 13.6 | 27.5 | 13.2 | 27.6 | 9.11 | 29.3 | 12.7 | 26.8 | 5.99 | 19.8 | 13.3 | 28.1 | 13.8 | 28.6 |
| COc1ncnc2c(NC3OC(CO)C(O)C3O)ncnc12 (stereo unspecified) |  | 7.22 |  | 7.08 |  | 12.6 |  | > 35 |  | > 35.6 |  | 1.57 |  | > 100 |  | > 83.5 |  | 10.6 |  | 10 |
| CC1CCC2(OC1)OC1CC3C4CC=C5CC(OC6OC(CO)C(OC7OC(C)C(OC8OC(C)C(O)C(O)C8O)C(O)C7O)C(O)C6OC6OC(C)C(O)C(O)C6O)CCC5(C)C4CCC3(C)C1C2C (stereo unspecified) |  | 2.89 |  | 1.33 |  | 2.08 |  | 1.37 |  | 2.39 |  |  |  | 2.03 |  | 3.25 |  | 1.04 |  | 2.54 |
| Cc1cccc(C(C)O)n1 (stereo unspecified) |  | > 100 |  | > 100 |  | > 100 |  | > 100 |  | > 100 |  | > 100 |  | > 100 |  | > 100 |  | > 100 |  | > 100 |
| O=C(O)C(/C=C/c1ccco1)=N\Nc1nc(-c2ccc(Cl)cc2)cs1 | 17.3 | > 50 | 9.41 | > 50 | 17.3 | > 50 | 14.2 | > 50 | 46.4 | > 50 | 3.26 | > 50 | 11.1 | > 50 | 8.36 | > 50 | 13.2 | > 50 | 15.8 | > 50 |
| O=C1C(NCCO)=C(N2CC2)C(=O)C(NCCO)=C1N1CC1 |  | > 100 |  | > 70.8 |  | > 100 |  | > 100 |  | > 100 |  | 55.9 |  | 76.8 |  | > 66.2 |  | 56.7 |  | > 100 |
| COc1ccc(/C=C/C(=O)c2ccc(Nc3ncnc4ccccc34)cc2)cc1OC | 3.61 | 25.2 | 3.26 | 27 | 4.22 | > 100 | 3.22 | 11.8 | 39.6 | > 100 | 2.55 | 7.01 | 6.55 | > 100 | 13 | > 100 | 10.9 | > 100 | 8.16 | > 100 |
| C#Cc1cccc(NC(=O)Nc2ccc(NC(=O)CCl)cc2)c1 | 15.9 | 69.8 | 12.2 | 28.6 | 17.1 | 74.5 | 52.5 | > 82.5 | 14.3 | 28.2 | 9.55 | 26.9 | 12.7 | 28.5 | 22 | > 82.5 | 12.7 | 29.8 | 32.7 | > 82.5 |
